Test results published in patent US11597724B2, “Herbicidally active 3-phenylisoxazoline-5-carboxamides of tetrahydro and dihydrofuran carboxylic acids and esters” (Bayer Aktiengesellschaft, priority 2017, dated 2023).

Key:
Format in all cases: in vivo
Avena fatua [1] = assay: Post-emergence herbicidal activity against AVEFA; details: dosage 320 g/ha, rated about 3 weeks after treatment; for pest or weed control at 320 g/ha: Avena fatua, 504 h
Outline: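 Greenhouse pots of sandy loam; plants sprayed at one-leaf stage, 2 to 3 weeks after sowing, with WP or EC formulations in water plus 0.5% additive at 600 l/ha. Activity rated visually after about 3 weeks against untreated controls (100% = plants dead, 0% = like control).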

Setaria viridis = assay: Post-emergence herbicidal activity against SETVI; details: dosage 320 g/ha, rated about 3 weeks after treatment; for pest or weed control at 320 g/ha: Setaria viridis, 504 h
Outline: (§1)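 Greenhouse weeds in sandy loam were sprayed at the one-leaf stage, 2–3 weeks after sowing, with WP or EC formulations plus 0.5% additive at 600 l/ha water. About 3 weeks later, damage was rated visually against untreated controls, where 100% means plants dead and 0% means like control.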

Stellaria media = assay: Pre-emergence herbicidal activity against STEME; details: dosage 80 g/ha; for pest or weed control at 80 g/ha: Stellaria media, 504 h
Outline: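 Weed seeds sown in pots and covered with soil, then WP or EC formulations sprayed onto the soil surface as aqueous suspension/emulsion with 0.5% additive at 600 l/ha water. Kept in greenhouse; visual percent effect versus untreated controls scored after about 3 weeks (100% = plants dead).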

Pharbitis purpurea = assay: Post-emergence herbicidal activity against PHBPU; details: dosage 320 g/ha, rated about 3 weeks after treatment; for pest or weed control at 320 g/ha: Ipomoea purpurea, 504 h
Outline: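 Greenhouse-grown plants sprayed post-emergence at the one-leaf stage, 2 to 3 weeks after sowing, with WP or EC formulations plus 0.5% additive at 600 l/ha water. Activity rated visually after about 3 weeks versus untreated controls (100% = plants dead, 0% = like control).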

Amaranthus retroflexus = assay: Pre-emergence herbicidal activity against AMARE; details: dosage 80 g/ha; for pest or weed control at 80 g/ha: Amaranthus retroflexus, 504 h
Outline: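 Seeds sown in pots, covered with soil; WP or EC formulations sprayed onto soil surface as aqueous suspension/emulsion with 0.5% additive at 600 l/ha water. Pots kept in greenhouse ~3 weeks, then effect scored visually versus untreated controls as % (100% = plants dead, 0% = like control).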

Polygonum convolvulus = assay: Post-emergence herbicidal activity against POLCO; details: dosage 320 g/ha, rated about 3 weeks after treatment; for pest or weed control at 320 g/ha: Fallopia convolvulus, 504 h
Outline: as §1

Echinochloa crus-galli = assay: Post-emergence herbicidal activity against ECHCG; details: dosage 320 g/ha, rated about 3 weeks after treatment; for pest or weed control at 320 g/ha: Echinochloa crus-galli, 504 h
Outline: (§2)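 Greenhouse pot plants sprayed post-emergence at one-leaf stage (2-3 weeks after sowing) with WP or EC formulations, 0.5% additive, 600 l/ha water. Visual rating about 3 weeks later versus untreated controls: 100% = plants dead, 0% = like control.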

Hordeum murinum = assay: Post-emergence herbicidal activity against HORMU; details: dosage 320 g/ha; for pest or weed control at 320 g/ha: Hordeum murinum, 504 h
Outline: as §2

Avena fatua [2] = assay: Pre-emergence herbicidal activity against AVEFA; details: dosage 80 g/ha; for pest or weed control at 80 g/ha: Avena fatua, 504 h, read-out: Pre-emergence herbicidal activity against AVEVA in % (AVEFA)
Source text: 1. Pre-Emergence Herbicidal Action and Crop Plant Compatibility Seeds of monocotyledonous and dicotyledonous weed plants and crop plants are placed in plastic or wood fiber pots and covered with soil. The compounds of the invention, formulated in the form of wettable powders (WP) or as emulsion concentrates (EC), are then applied onto the surface of the covering soil as aqueous suspension or emulsion with addition of 0.5% additive at a water application rate of 600 l/ha (converted). After the treatment, the pots are placed in a greenhouse and kept under good growth conditions for the trial plants. After about 3 weeks, the effect of the preparations is scored visually in comparison with untreated controls as percentages. For example, 100% activity=the plants have died, 0% activity=like control plants. AMARE: Amaranthus retroflexus AVEFA: Avena fatua

Question: For `C=C[C@]1(C(=O)N[C@H]2CO[C@@H](C(=O)OC)C2)CC(c2cc(F)cc(F)c2)=NO1` (single isomer, unassigned) [I-11], which pest or weed control at 320 g/ha (Avena fatua [1]) is on record?
Answer: 100%

Question: What about the pest or weed control at 320 g/ha (Setaria viridis) of the same compound?
Answer: 90%

Question: What about the “Pre-emergence herbicidal activity against STEME in %” value (Stellaria media) of the same compound?
Answer: 100%

Question: What about the pest or weed control at 320 g/ha (Pharbitis purpurea) of the same compound?
Answer: 90%

Question: What about the “Pre-emergence herbicidal activity against AMARE in %” value (Amaranthus retroflexus) of the same compound?
Answer: 100%

Question: And the pest or weed control at 320 g/ha (Polygonum convolvulus)?
Answer: 90%

Question: What about the pest or weed control at 320 g/ha (Echinochloa crus-galli) of the same compound?
Answer: 90%

Question: And the pest or weed control at 320 g/ha (Hordeum murinum)?
Answer: 100%

Question: What about the “Pre-emergence herbicidal activity against AVEVA in % (AVEFA)” value (Avena fatua [2]) of the same compound?
Answer: 100%

Question: For `COC(=O)C1CC(NC(=O)C2(C)CC(c3cc(F)cc(F)c3)=NO2)CO1` (mixture of isomers) [I-48], which “Post-emergence herbicidal activity against AVEFA in %” value (Avena fatua [1]) is on record?
Answer: 80%

Question: What about the “Post-emergence herbicidal activity against SETVI in %” value (Setaria viridis) of the same compound?
Answer: 80%

Question: What about the “Pre-emergence herbicidal activity against STEME in %” value (Stellaria media) of the same compound?
Answer: 100%

Question: And the “Post-emergence herbicidal activity against PHBPU in %” value (Pharbitis purpurea)?
Answer: 80%

Question: And the “Pre-emergence herbicidal activity against AMARE in %” value (Amaranthus retroflexus)?
Answer: 100%

Question: And the “Post-emergence herbicidal activity against POLCO in %” value (Polygonum convolvulus)?
Answer: 80%

Question: And the “Post-emergence herbicidal activity against ECHCG in %” value (Echinochloa crus-galli)?
Answer: 90%

Question: What about the “Post-emergence herbicidal activity against HORMU in %” value (Hordeum murinum) of the same compound?
Answer: 90%

Question: What about the “Pre-emergence herbicidal activity against AVEVA in % (AVEFA)” value (Avena fatua [2]) of the same compound?
Answer: 100%

Question: For `CCOC(=O)[C@H]1C[C@@H](NC(=O)C2(C)CC(c3cccc(F)c3)=NO2)CO1` (mixture of isomers) [I-30, ethyl cis-4-[[(5RS)-3-(3-fluorophenyl)-5-methyl-4H-isoxazole-5-carbonyl]amino]tetrahydrofuran-2-carboxylate], which pest or weed control at 320 g/ha (Avena fatua [1]) is on record?
Answer: 100%

Question: And the pest or weed control at 320 g/ha (Setaria viridis)?
Answer: 90%

Question: And the pest or weed control at 80 g/ha (Stellaria media)?
Answer: 90%

Question: What about the pest or weed control at 320 g/ha (Pharbitis purpurea) of the same compound?
Answer: 90%

Question: What about the pest or weed control at 80 g/ha (Amaranthus retroflexus) of the same compound?
Answer: 80%

Question: What about the pest or weed control at 320 g/ha (Polygonum convolvulus) of the same compound?
Answer: 80%

Question: What about the pest or weed control at 320 g/ha (Echinochloa crus-galli) of the same compound?
Answer: 80%

Question: What about the pest or weed control at 320 g/ha (Hordeum murinum) of the same compound?
Answer: 100%

Question: And the pest or weed control at 80 g/ha (Avena fatua [2])?
Answer: 80%

Question: Which “Post-emergence herbicidal activity against AVEFA in %” value (Avena fatua [1]) does the source give for `CC(C)(C)OC(=O)C1CC(NC(=O)C2(C)CC(c3cc(F)cc(F)c3)=NO2)CO1` (mixture of isomers) [I-42] here?
Answer: 100%

Question: And the “Post-emergence herbicidal activity against SETVI in %” value (Setaria viridis)?
Answer: 90%

Question: And the “Pre-emergence herbicidal activity against STEME in %” value (Stellaria media)?
Answer: 100%

Question: What about the “Post-emergence herbicidal activity against PHBPU in %” value (Pharbitis purpurea) of the same compound?
Answer: 90%

Question: And the “Pre-emergence herbicidal activity against AMARE in %” value (Amaranthus retroflexus)?
Answer: 100%

Question: And the “Post-emergence herbicidal activity against POLCO in %” value (Polygonum convolvulus)?
Answer: 80%

Question: And the “Post-emergence herbicidal activity against ECHCG in %” value (Echinochloa crus-galli)?
Answer: 100%

Question: What about the “Post-emergence herbicidal activity against HORMU in %” value (Hordeum murinum) of the same compound?
Answer: 100%

Question: What about the “Pre-emergence herbicidal activity against AVEVA in % (AVEFA)” value (Avena fatua [2]) of the same compound?
Answer: 90%

Question: How did the pest or weed control at 320 g/ha (Avena fatua [1]) turn out when `C=C[C@]1(C(=O)N[C@H]2CO[C@@H](C(=O)OC)C2)CC(c2cc(F)cc(F)c2)=NO1` (mixture of isomers) [I-10, methyl cis-4-[[(5S)-3-(3,5-difluorophenyl)-5-vinyl-4H-isoxazole-5-carbonyl]amino]tetrahydrofuran-2-carboxylate] was run?
Answer: 100%

Question: And the pest or weed control at 320 g/ha (Setaria viridis)?
Answer: 90%

Question: And the pest or weed control at 80 g/ha (Stellaria media)?
Answer: 100%

Question: What about the pest or weed control at 320 g/ha (Pharbitis purpurea) of the same compound?
Answer: 90%

Question: What about the pest or weed control at 80 g/ha (Amaranthus retroflexus) of the same compound?
Answer: 90%

Question: What about the pest or weed control at 320 g/ha (Polygonum convolvulus) of the same compound?
Answer: 80%

Question: What about the pest or weed control at 320 g/ha (Echinochloa crus-galli) of the same compound?
Answer: 100%

Question: What about the pest or weed control at 320 g/ha (Hordeum murinum) of the same compound?
Answer: 100%

Question: And the pest or weed control at 80 g/ha (Avena fatua [2])?
Answer: 100%

Question: With `CC1(C(=O)NC2COC(C(=O)O)C2)CC(c2cc(F)cc(F)c2)=NO1` (mixture of isomers) [I-41] as the compound, how does the “Post-emergence herbicidal activity against AVEFA in %” value (Avena fatua [1]) read?
Answer: 100%

Question: And the “Post-emergence herbicidal activity against SETVI in %” value (Setaria viridis)?
Answer: 90%

Question: And the “Pre-emergence herbicidal activity against STEME in %” value (Stellaria media)?
Answer: 100%

Question: What about the “Post-emergence herbicidal activity against PHBPU in %” value (Pharbitis purpurea) of the same compound?
Answer: 90%

Question: What about the “Pre-emergence herbicidal activity against AMARE in %” value (Amaranthus retroflexus) of the same compound?
Answer: 90%

Question: What about the “Post-emergence herbicidal activity against POLCO in %” value (Polygonum convolvulus) of the same compound?
Answer: 90%

Question: What about the “Post-emergence herbicidal activity against ECHCG in %” value (Echinochloa crus-galli) of the same compound?
Answer: 100%

Question: What about the “Post-emergence herbicidal activity against HORMU in %” value (Hordeum murinum) of the same compound?
Answer: 100%

Question: And the “Pre-emergence herbicidal activity against AVEVA in % (AVEFA)” value (Avena fatua [2])?
Answer: 100%

Question: For `CC(C)OC(=O)C1CC(NC(=O)C2(C)CC(c3cc(F)cc(F)c3)=NO2)CO1` (stereo not drawn) [I-44], which “Post-emergence herbicidal activity against AVEFA in %” value (Avena fatua [1]) is on record?
Answer: 100%

Question: What about the “Post-emergence herbicidal activity against SETVI in %” value (Setaria viridis) of the same compound?
Answer: 90%

Question: And the “Pre-emergence herbicidal activity against STEME in %” value (Stellaria media)?
Answer: 90%

Question: And the “Post-emergence herbicidal activity against PHBPU in %” value (Pharbitis purpurea)?
Answer: 90%

Question: And the “Pre-emergence herbicidal activity against AMARE in %” value (Amaranthus retroflexus)?
Answer: 90%

Question: What about the “Post-emergence herbicidal activity against POLCO in %” value (Polygonum convolvulus) of the same compound?
Answer: 80%

Question: What about the “Post-emergence herbicidal activity against ECHCG in %” value (Echinochloa crus-galli) of the same compound?
Answer: 100%

Question: What about the “Post-emergence herbicidal activity against HORMU in %” value (Hordeum murinum) of the same compound?
Answer: 100%

Question: What about the “Pre-emergence herbicidal activity against AVEVA in % (AVEFA)” value (Avena fatua [2]) of the same compound?
Answer: 90%

Question: What does the source list for `C=C[C@]1(C(=O)N[C@H]2CO[C@@H](C(=O)OC(C)C)C2)CC(c2cc(F)cc(F)c2)=NO1` (mixture of isomers) [I-36, isopropyl cis-4-[[(5S)-3-(3,5-difluorophenyl)-5-vinyl-4H-isoxazole-5-carbonyl]amino]tetrahydrofuran-2-carboxylate]?
Answer: pest or weed control at 320 g/ha (Avena fatua [1]): 90%; pest or weed control at 320 g/ha (Setaria viridis): 80%; pest or weed control at 80 g/ha (Stellaria media): 100%; pest or weed control at 320 g/ha (Pharbitis purpurea): 80%; pest or weed control at 80 g/ha (Amaranthus retroflexus): 100%; pest or weed control at 320 g/ha (Polygonum convolvulus): 80%; pest or weed control at 320 g/ha (Echinochloa crus-galli): 90%; pest or weed control at 320 g/ha (Hordeum murinum): 90%; pest or weed control at 80 g/ha (Avena fatua [2]): 100%

Question: For `C=C[C@]1(C(=O)N[C@H]2CO[C@@H](C(=O)OC)C2)CC(c2cc(F)cc(F)c2)=NO1` (single isomer, unassigned) [I-12], which “Post-emergence herbicidal activity against AVEFA in %” value (Avena fatua [1]) is on record?
Answer: 100%

Question: And the “Post-emergence herbicidal activity against SETVI in %” value (Setaria viridis)?
Answer: 90%

Question: And the pest or weed control at 80 g/ha (Stellaria media)?
Answer: 100%

Question: What about the “Post-emergence herbicidal activity against PHBPU in %” value (Pharbitis purpurea) of the same compound?
Answer: 90%

Question: What about the pest or weed control at 80 g/ha (Amaranthus retroflexus) of the same compound?
Answer: 100%

Question: What about the “Post-emergence herbicidal activity against POLCO in %” value (Polygonum convolvulus) of the same compound?
Answer: 90%

Question: What about the “Post-emergence herbicidal activity against ECHCG in %” value (Echinochloa crus-galli) of the same compound?
Answer: 90%

Question: What about the “Post-emergence herbicidal activity against HORMU in %” value (Hordeum murinum) of the same compound?
Answer: 90%

Question: What about the pest or weed control at 80 g/ha (Avena fatua [2]) of the same compound?
Answer: 100%
